Reference: patent US8609086B2, “Preparation created from an in vitro culture of dedifferentiated, non-elicited cells of the Argania tree, use thereof for treating skin ageing, inflammation and scarring, and production thereof” (Pierre Fabre Dermo-Cosmetique, priority 2010, dated 2013)

Experiment: Anti-oxidizing activity by chemiluminescence (ACL kit), trolox equivalent
Assay type: biochemical
Details: anti-oxidizing power in trolox equivalent, trapping of superoxide anions
Source text: This method generates free radicals (superoxide radical O2^o−) by a photochemical signal. The intensity of oxidation is 1000 times greater than that obtained under normal conditions. Detection is done by chemiluminescence and is used to evaluate lipo or hydrosoluble anti-oxidizing extracts or molecules. The results are expressed as an equivalent quantity of vitamin C or Trolox (6-Hydroxy-2,5,7,8-tetramethylchroman-2-carboxylic acid). The sensitivity is of the order of one nanomole.
The analysis of the results depends on two criteria, namely the shape of the curve (integration) and the numerical value given by the software in nanomoles. (Igor Popov and Gudrun Lewin. Methods in enzymology vol 300. 437-456; Maibach I Howard and coll. Journal of Cosmetic Dermatology Vol 7(2) 96-100 (2008)).
The results will be expressed in μg of sample necessary to obtain an activity equivalent to the activity detected for 1 μg of standard (=trolox). (ACL Kit).
The anti-oxidizing activity studied in this test represents the ability to specifically trap superoxide anions by chemiluminescence.

Structure (SMILES)	ACL μg of sample for 1 μg of Trolox
COC1=C(OC)C(=O)C(C/C=C(\C)CC/C=C(\C)CC/C=C(\C)CC/C=C(\C)CC/C=C(\C)CC/C=C(\C)CC/C=C(\C)CC/C=C(\C)CC/C=C(\C)CCC=C(C)C)=C(C)C1=O [Coenzyme 10]	272 μg of sample for 1 μg of Trolox
Cc1c(C)c2c(c(C)c1O)CCC(C)(C(=O)O)O2 (centres unmarked) [Trolox, 6-Hydroxy-2,5,7,8-tetramethylchroman-2-carboxylic acid]	1 μg of sample for 1 μg of Trolox
